Results reported in patent US12723063B2, “GIPR-agonist compounds” (Eli Lilly and Company, priority 2019, dated 2026).
*1 amine or outer side, *2 acyl side, *3 side chain or, on linkers, in order; H or OH if unused. Where a SMILES comes first, the peptide text is derived from it. Side-chain parts run from the residue outwards. [ ]: non-standard residue; d: D form. The star is where a group is joined. C20 diacid = O=C(O)CCCCCCCCCCCCCCCCCCC(=O)*; γGlu = O=C(O)[C@H](CCC(=O)[*:2])N[*:1]; αMeF = C[C@](N)(Cc1ccccc1)C(=O)O; 4Pal = N[C@@H](Cc1ccncc1)C(=O)O; αMeL = CC(C)C[C@](C)(N)C(=O)O; AEEA = NCCOCCOCC(=O)O; Aib = CC(C)(N)C(=O)O

Key:
Assay in all cases: cAMP functional assay (HTRF) in HEK293 cells in presence of 0.1% casein
Type in all cases: cell-based
[1] = target: T1, human GLP-1 receptor (GLP-1R) (Homo sapiens, UniProt P43220); details: HEK293 cells expressing human GLP-1R, geometric mean, read-out: hGLP1R cAMP Rel EC50 nM (SEM, n)
T1 construct: expressed in transfected cells; host or cells: HEK293

[2] = target: T2, human glucose-dependent insulinotropic peptide receptor (GIPR) (Homo sapiens, UniProt P48546); details: HEK293 cells expressing human GIPR, geometric mean, read-out: hGIPR cAMP Rel EC50 nM (SEM, n)
T2 construct: expressed in transfected cells; host or cells: HEK293
T2 sequence (P48546 22-466): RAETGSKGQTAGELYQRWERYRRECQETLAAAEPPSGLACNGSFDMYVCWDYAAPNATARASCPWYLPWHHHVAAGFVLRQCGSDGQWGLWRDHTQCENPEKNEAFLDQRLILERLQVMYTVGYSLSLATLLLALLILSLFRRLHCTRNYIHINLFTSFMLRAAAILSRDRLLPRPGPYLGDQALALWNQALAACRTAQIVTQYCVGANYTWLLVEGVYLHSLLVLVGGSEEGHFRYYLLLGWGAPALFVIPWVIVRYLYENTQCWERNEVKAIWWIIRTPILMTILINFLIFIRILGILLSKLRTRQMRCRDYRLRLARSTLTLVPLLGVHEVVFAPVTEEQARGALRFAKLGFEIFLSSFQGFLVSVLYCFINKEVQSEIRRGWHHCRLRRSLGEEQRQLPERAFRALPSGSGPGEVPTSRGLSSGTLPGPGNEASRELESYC

[3] = target: T3, human glucagon receptor (GcgR) (Homo sapiens, UniProt P47871); details: HEK293 cells expressing human GcgR, geometric mean, read-out: hGcgR cAMP Rel EC50 nM (SEM, n)
T3 construct: expressed in transfected cells; host or cells: HEK293
T3 sequence (P47871 26-477): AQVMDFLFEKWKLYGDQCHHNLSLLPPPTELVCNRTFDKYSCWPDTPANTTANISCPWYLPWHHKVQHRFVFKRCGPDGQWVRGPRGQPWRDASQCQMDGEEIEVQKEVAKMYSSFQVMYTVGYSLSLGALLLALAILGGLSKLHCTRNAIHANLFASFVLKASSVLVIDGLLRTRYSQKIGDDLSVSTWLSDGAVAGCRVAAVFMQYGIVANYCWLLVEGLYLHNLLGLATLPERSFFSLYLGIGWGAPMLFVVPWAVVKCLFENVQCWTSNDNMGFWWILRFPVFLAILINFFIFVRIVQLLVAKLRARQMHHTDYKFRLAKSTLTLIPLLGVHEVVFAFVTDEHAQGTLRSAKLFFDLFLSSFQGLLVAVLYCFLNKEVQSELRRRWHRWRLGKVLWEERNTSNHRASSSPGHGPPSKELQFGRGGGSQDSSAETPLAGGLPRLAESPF

T1 sequence (P43220 24-463): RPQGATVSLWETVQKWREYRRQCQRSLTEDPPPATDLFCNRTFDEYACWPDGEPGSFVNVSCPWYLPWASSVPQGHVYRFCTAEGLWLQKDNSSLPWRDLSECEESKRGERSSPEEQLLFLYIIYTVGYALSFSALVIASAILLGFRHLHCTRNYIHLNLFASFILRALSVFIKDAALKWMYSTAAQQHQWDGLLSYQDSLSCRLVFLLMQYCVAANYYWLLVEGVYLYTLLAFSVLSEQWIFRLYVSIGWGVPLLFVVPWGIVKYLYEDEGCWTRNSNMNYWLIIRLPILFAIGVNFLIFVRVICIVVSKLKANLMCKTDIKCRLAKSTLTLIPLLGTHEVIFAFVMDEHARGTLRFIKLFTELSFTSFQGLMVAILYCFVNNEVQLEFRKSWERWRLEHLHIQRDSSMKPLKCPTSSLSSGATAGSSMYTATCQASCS

| Compound | EC50 [1] [nM] | EC50 [2] [nM] | EC50 [3] [nM] |
| --- | --- | --- | --- |
| CC[C@H](C)[C@H](NC(=O)[C@H](CO)NC(=O)[C@H](Cc1ccc(O)cc1)NC(=O)[C@H](CC(=O)O)NC(=O)[C@H](CO)NC(=O)[C@@H](NC(=O)[C@](C)(Cc1ccccc1)NC(=O)[C@@H](NC(=O)CNC(=O)[C@H](CCC(=O)O)NC(=O)C(C)(C)NC(=O)[C@@H](N)Cc1ccc(O)cc1)[C@@H](C)O)[C@@H](C)CC)C(=O)N[C@@H](C)C(=O)N[C@@H](CC(C)C)C(=O)N[C@@H](CC(=O)O)C(=O)N[C@@H](CCCCN)C(=O)N[C@@H](CCCCNC(=O)COCCOCCNC(=O)COCCOCCNC(=O)CC[C@H](NC(=O)CCCCCCCCCCCCCCCCCCC(=O)O)C(=O)O)C(=O)N[C@@H](Cc1c[nH]cn1)C(=O)N[C@@H](CCC(N)=O)C(=O)NC(C)(C)C(=O)N[C@@H](CC(=O)O)C(=O)N[C@@H](Cc1ccccc1)C(=O)N[C@H](C(=O)N[C@@H](CCC(=O)O)C(=O)N[C@@H](Cc1ccncc1)C(=O)N[C@@H](CC(C)C)C(=O)N[C@@H](CC(C)C)C(=O)N[C@@H](CCC(=O)O)C(=O)N[C@@H](CCC(N)=O)C(=O)NCC(=O)N1CCC[C@H]1C(=O)N[C@@H](CO)C(=O)N[C@@H](CO)C(=O)NCC(=O)N[C@@H](C)C(=O)N1CCC[C@H]1C(=O)N1CCC[C@H]1C(=O)N1CCC[C@H]1C(=O)N[C@@H](CO)C(N)=O)C(C)C [Example 42] (H-Y[Aib]EGT[αMeF]ISDYSIALDKK([AEEA-AEEA-γGlu-C20 diacid])HQ[Aib]DFVE[4Pal]LLEQGPSSGAPPPS-NH2) | 815 | 0.0091 | > 5000 |
| CC[C@H](C)[C@H](NC(=O)[C@H](CO)NC(=O)[C@H](Cc1ccc(O)cc1)NC(=O)[C@H](CC(=O)O)NC(=O)[C@H](CO)NC(=O)[C@@H](NC(=O)[C@](C)(Cc1ccccc1)NC(=O)[C@@H](NC(=O)CNC(=O)[C@H](CCC(=O)O)NC(=O)C(C)(C)NC(=O)[C@@H](N)Cc1ccc(O)cc1)[C@@H](C)O)[C@@H](C)CC)C(=O)N[C@@](C)(CC(C)C)C(=O)N[C@@H](CC(C)C)C(=O)N[C@@H](CC(=O)O)C(=O)N[C@@H](CCCCN)C(=O)N[C@@H](CCCCNC(=O)COCCOCCNC(=O)COCCOCCNC(=O)CC[C@H](NC(=O)CCCCCCCCCCCCCCCCCCC(=O)O)C(=O)O)C(=O)N[C@@H](Cc1c[nH]cn1)C(=O)N[C@@H](CCC(N)=O)C(=O)NC(C)(C)C(=O)N[C@@H](CCC(=O)O)C(=O)N[C@@H](Cc1ccccc1)C(=O)N[C@H](C(=O)N[C@@H](CCC(=O)O)C(=O)N[C@@H](Cc1ccncc1)C(=O)N[C@@H](CC(C)C)C(=O)N[C@@H](CC(C)C)C(=O)N[C@@H](C)C(=O)N[C@H](C(=O)NCC(=O)N1CCC[C@H]1C(=O)N[C@@H](CO)C(=O)N[C@@H](CO)C(=O)NCC(=O)N[C@@H](C)C(=O)N1CCC[C@H]1C(=O)N1CCC[C@H]1C(=O)N1CCC[C@H]1C(=O)N[C@@H](CO)C(N)=O)[C@@H](C)O)C(C)C [Example 61] (H-Y[Aib]EGT[αMeF]ISDYSI[αMeL]LDKK([AEEA-AEEA-γGlu-C20 diacid])HQ[Aib]EFVE[4Pal]LLATGPSSGAPPPS-NH2) | 192 | 0.0167 | > 5000 |
